One test addresses T1, human recombinant HDAC1 (Homo sapiens, UniProt Q13547).
T1 construct: purchased Enzo Life Science BML-SE456
The test can be described thus: HDAC1 enzyme activity inhibition test (HDAC Fluorometric Drug Discovery Kit). Type of test: biochemical. The conditions noted are these: 30° C., 60 minutes, 10 μM substrate. The method, boiled down: (§1)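 IC50 derived from fluorescence (Ex 360, Em 460) following 30 min development with Developer II. Each reaction held 0.3 μg human recombinant HDAC1 or HDAC6, 10 μM Fluor de Lys SIRT1 substrate and 5-fold serially diluted compound, incubated 60 min at 30 °C.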

Another test addresses T2, human recombinant HDAC6 (Homo sapiens, UniProt Q9UBN7).
T2 construct: purchased Calbiochem 382180
T2 sequence (Q9UBN7 1-1215): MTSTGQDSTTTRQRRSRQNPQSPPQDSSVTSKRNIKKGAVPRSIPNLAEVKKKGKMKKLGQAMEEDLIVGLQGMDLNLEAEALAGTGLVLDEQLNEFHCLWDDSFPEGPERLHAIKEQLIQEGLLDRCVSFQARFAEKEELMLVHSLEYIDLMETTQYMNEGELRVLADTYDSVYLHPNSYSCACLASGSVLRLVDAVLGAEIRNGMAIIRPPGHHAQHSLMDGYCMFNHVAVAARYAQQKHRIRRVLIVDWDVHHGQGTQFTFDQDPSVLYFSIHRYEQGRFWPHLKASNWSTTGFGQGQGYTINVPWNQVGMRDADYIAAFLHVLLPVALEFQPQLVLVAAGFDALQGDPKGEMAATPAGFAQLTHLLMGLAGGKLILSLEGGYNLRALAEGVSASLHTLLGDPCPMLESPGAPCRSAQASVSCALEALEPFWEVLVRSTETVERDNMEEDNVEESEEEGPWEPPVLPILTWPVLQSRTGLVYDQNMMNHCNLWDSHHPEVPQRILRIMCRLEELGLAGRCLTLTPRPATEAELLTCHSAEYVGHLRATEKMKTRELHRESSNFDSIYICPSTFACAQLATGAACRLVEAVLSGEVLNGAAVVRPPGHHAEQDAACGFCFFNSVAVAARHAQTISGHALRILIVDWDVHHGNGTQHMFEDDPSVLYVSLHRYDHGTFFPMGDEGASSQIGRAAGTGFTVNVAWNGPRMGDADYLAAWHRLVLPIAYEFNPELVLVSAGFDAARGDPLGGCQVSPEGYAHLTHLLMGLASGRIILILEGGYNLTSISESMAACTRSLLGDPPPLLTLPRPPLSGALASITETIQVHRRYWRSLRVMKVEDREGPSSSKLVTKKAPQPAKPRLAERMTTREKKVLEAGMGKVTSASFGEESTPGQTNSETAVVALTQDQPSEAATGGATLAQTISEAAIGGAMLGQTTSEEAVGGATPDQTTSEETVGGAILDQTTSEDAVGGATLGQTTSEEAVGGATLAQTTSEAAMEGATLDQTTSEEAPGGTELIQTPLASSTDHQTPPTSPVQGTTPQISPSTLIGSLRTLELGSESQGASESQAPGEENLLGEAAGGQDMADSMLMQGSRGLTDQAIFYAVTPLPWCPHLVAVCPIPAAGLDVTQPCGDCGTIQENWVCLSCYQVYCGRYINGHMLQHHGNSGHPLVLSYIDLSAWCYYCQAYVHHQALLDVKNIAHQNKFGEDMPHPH
The experiment in a line: HDAC6 enzyme activity inhibition test (HDAC Fluorometric Drug Discovery Kit). Type of test: biochemical. As to conditions: for HDAC6 selectivity (fold): HDAC6 over HDAC1; for IC50: human recombinant HDAC6, same protocol as HDAC1. In short, it runs like this: as §1

T1 sequence (Q13547 whole entry): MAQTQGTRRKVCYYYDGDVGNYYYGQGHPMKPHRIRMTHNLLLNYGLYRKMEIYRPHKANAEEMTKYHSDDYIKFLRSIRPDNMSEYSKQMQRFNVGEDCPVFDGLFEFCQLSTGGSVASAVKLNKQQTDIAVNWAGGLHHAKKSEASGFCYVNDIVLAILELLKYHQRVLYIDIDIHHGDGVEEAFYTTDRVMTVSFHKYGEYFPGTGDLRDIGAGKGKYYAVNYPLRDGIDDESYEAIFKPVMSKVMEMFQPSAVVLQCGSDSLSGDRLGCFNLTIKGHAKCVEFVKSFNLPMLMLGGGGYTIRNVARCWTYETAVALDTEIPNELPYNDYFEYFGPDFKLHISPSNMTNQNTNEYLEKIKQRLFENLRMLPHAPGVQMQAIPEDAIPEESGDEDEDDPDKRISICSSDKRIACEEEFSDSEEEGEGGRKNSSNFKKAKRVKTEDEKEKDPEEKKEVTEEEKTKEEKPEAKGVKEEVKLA

For `FC(F)c1nnc(-c2ccc(Cn3nc(-c4cccc(N5CCN(C6CCCC6)CC5)n4)oc3=S)nc2)o1` [Compound 102, 5-[6-(4-cyclopentylpiperazin-1-yl)-2-pyridyl]-3-[[5-[5-(difluoromethyl)-1,3,4-oxadiazol-2-yl]-2-pyridyl]methyl]-1,3,4-oxadiazol-2-thione], the IC50 at human recombinant HDAC1 is > 50000 nM. In addition, on human recombinant HDAC6, the “HDAC6 selectivity (fold)” value stood at 1188 fold and the IC50 came out at 42.1 nM.

As for `CCN1CCN(c2cccc(-c3nn(Cc4ncc(-c5nnc(C(F)F)o5)cc4F)c(=S)o3)n2)CC1` [Compound 103, 3-[[5-[5-(difluoromethyl)-1,3,4-oxadiazol-2-yl]-3-fluoro-2-pyridyl]methyl]-5-[6-(4-ethylpiperazin-1-yl)-2-pyridyl]-1,3,4-oxadiazol-2-thione], the IC50 on human recombinant HDAC1 was > 50000 nM. Further, at human recombinant HDAC6, the “HDAC6 selectivity (fold)” value turned out to be 1302 fold and the IC50 amounted to 38.4 nM.

As for `CC(C)N1CCN(c2cccc(-c3nn(Cc4ncc(-c5nnc(C(F)F)o5)cc4F)c(=S)o3)n2)CC1` [Compound 104, 3-[[5-[5-(difluoromethyl)-1,3,4-oxadiazol-2-yl]-3-fluoro-2-pyridyl]methyl]-5-[6-(4-isopropylpiperazin-1-yl)-2-pyridyl]-1,3,4-oxadiazol-2-thione], the IC50 was > 50000 nM on human recombinant HDAC1 and 43 nM at human recombinant HDAC6. In addition, the “HDAC6 selectivity (fold)” value on human recombinant HDAC6 amounted to 1163 fold.

In the case of `CC(C)N1CCN(c2cc(-c3nn(Cc4ccc(-c5nnc(C(F)F)o5)cn4)c(=S)o3)ccn2)CC1` [Compound 105, 3-[[5-[5-(difluoromethyl)-1,3,4-oxadiazol-2-yl]-2-pyridyl]methyl]-5-[2-(4-isopropylpiperazin-1-yl)-4-pyridyl]-1,3,4-oxadiazol-2-thione], the IC50 at human recombinant HDAC1 is > 50000 nM; at human recombinant HDAC6, 68.1 nM. For the same compound, on human recombinant HDAC6, the “HDAC6 selectivity (fold)” value turned out to be 734 fold.

For `FC(F)c1nnc(-c2ccc(Cn3nc(-c4ccnc(N5CCN(C6CCCC6)CC5)c4)oc3=S)nc2)o1` [Compound 106, 5-[2-(4-cyclopentylpiperazin-1-yl)-4-pyridyl]-3-[[5-[5-(difluoromethyl)-1,3,4-oxadiazol-2-yl]-2-pyridyl]methyl]-1,3,4-oxadiazol-2-thione], the IC50 was > 50000 nM on human recombinant HDAC1 and 78.2 nM at human recombinant HDAC6. The “HDAC6 selectivity (fold)” value on human recombinant HDAC6 is on record as 639 fold.

As to `CN(C)Cc1ccc(-c2nn(Cc3ncc(-c4nnc(C(F)F)o4)cc3F)c(=S)o2)cc1` [Compound 107, 3-[[5-[5-(difluoromethyl)-1,3,4-oxadiazol-2-yl]-3-fluoro-2-pyridyl]methyl]-5-[4-[(dimethylamino)methyl]phenyl]-1,3,4-oxadiazol-2-thione], the IC50 at human recombinant HDAC1 was > 50000 nM. Further, on human recombinant HDAC6, the “HDAC6 selectivity (fold)” value is recorded as 1163 fold and the IC50 was 43 nM.

For `CNCc1ccc(-c2nn(Cc3ncc(-c4nnc(C(F)F)o4)cc3F)c(=S)o2)cc1` [Compound 108, 3-[[5-[5-(difluoromethyl)-1,3,4-oxadiazol-2-yl]-3-fluoro-2-pyridyl]methyl]-5-[4-(methylaminomethyl)phenyl]-1,3,4-oxadiazol-2-thione], the IC50 at human recombinant HDAC1 is > 50000 nM. Further, at human recombinant HDAC6, the “HDAC6 selectivity (fold)” value was 1475 fold and the IC50 worked out at 33.9 nM.

Regarding `CCN(CC)Cc1ccc(-c2nn(Cc3ncc(-c4nnc(C(F)F)o4)cc3F)c(=S)o2)cc1` [Compound 109, 5-[4-(diethylaminomethyl)phenyl]-3-[[5-[5-(difluoromethyl)-1,3,4-oxadiazol-2-yl]-3-fluoro-2-pyridyl]methyl]-1,3,4-oxadiazol-2-thione], the IC50 at human recombinant HDAC1 was > 50000 nM. In addition, on human recombinant HDAC6, the “HDAC6 selectivity (fold)” value came to 1020 fold and the IC50 was 49 nM.

For `Fc1cc(-c2nnc(C(F)F)o2)cnc1Cn1nc(-c2ccc(CN3CC(F)C3)cc2)oc1=S` [Compound 110, 3-[[5-[5-(difluoromethyl)-1,3,4-oxadiazol-2-yl]-3-fluoro-2-pyridyl]methyl]-5-[4-[(3-fluoroazetidine-1-yl)methyl]phenyl]-1,3,4-oxadiazol-2-thione], the IC50 on human recombinant HDAC1 is > 50000 nM. For the same compound, on human recombinant HDAC6, the “HDAC6 selectivity (fold)” value came out at 919 fold and the IC50 amounted to 54.4 nM.

Turning to `CC1CCN(Cc2ccc(-c3nn(Cc4ncc(-c5nnc(C(F)F)o5)cc4F)c(=S)o3)cc2)CC1` [Compound 111, 3-[[5-[5-(difluoromethyl)-1,3,4-oxadiazol-2-yl]-3-fluoro-2-pyridyl]methyl]-5-[4-[(4-methyl-1-piperidyl)methyl]phenyl]-1,3,4-oxadiazol-2-thione], the IC50 at human recombinant HDAC1 is > 50000 nM. In addition, at human recombinant HDAC6, the “HDAC6 selectivity (fold)” value is 549 fold and the IC50 was 91 nM.

`Fc1cc(-c2nnc(C(F)F)o2)cnc1Cn1nc(-c2ccc(CN3CCCCC3)cc2)oc1=S` [Compound 112, 3-[[5-[5-(difluoromethyl)-1,3,4-oxadiazol-2-yl]-3-fluoro-2-pyridyl]methyl]-5-[4-(1-piperidylmethyl)phenyl]-1,3,4-oxadiazol-2-thione]: the IC50 was > 50000 nM at human recombinant HDAC1 and 51 nM at human recombinant HDAC6. Moreover, at human recombinant HDAC6, the “HDAC6 selectivity (fold)” value is listed as 980 fold.

As for `Fc1cc(-c2nnc(C(F)F)o2)cnc1Cn1nc(-c2ccc(CN3CC[C@@H](F)C3)cc2)oc1=S` [Compound 113, 3-[[5-[5-(difluoromethyl)-1,3,4-oxadiazol-2-yl]-3-fluoro-2-pyridyl]methyl]-5-[4-[[(3R)-3-fluoropyrrolidin-1-yl]methyl]phenyl]-1,3,4-oxadiazol-2-thione], the IC50 on human recombinant HDAC1 was > 50000 nM; at human recombinant HDAC6, 64.3 nM. Further, the “HDAC6 selectivity (fold)” value on human recombinant HDAC6 is 778 fold.

Regarding `Fc1cc(-c2nnc(C(F)F)o2)cnc1Cn1nc(-c2ccc(CN3CC[C@H](F)C3)cc2)oc1=S` [Compound 114, 3-[[5-[5-(difluoromethyl)-1,3,4-oxadiazol-2-yl]-3-fluoro-2-pyridyl]methyl]-5-[4-[[(3S)-3-fluoropyrrolidin-1-yl]methyl]phenyl]-1,3,4-oxadiazol-2-thione], the 50% inhibitory concentration (IC50) is > 50000 nM at human recombinant HDAC1 and 60.7 nM at human recombinant HDAC6. Further, the “HDAC6 selectivity (fold)” value at human recombinant HDAC6 was found to be 824 fold.

Regarding `CN1CCC(c2cc(-c3nn(Cc4ccc(-c5nnc(C(F)F)o5)cn4)c(=S)o3)ccc2F)CC1` [Compound 115, 3-[[5-[5-(difluoromethyl)-1,3,4-oxadiazol-2-yl]-2-pyridyl]methyl]-5-[4-fluoro-3-(1-methyl-4-piperidyl)phenyl]-1,3,4-oxadiazol-2-thione], the IC50 at human recombinant HDAC1 is > 50000 nM. Further, on human recombinant HDAC6, the “HDAC6 selectivity (fold)” value was found to be 483 fold and the IC50 worked out at 104 nM.

In the case of `CC(C)N1CCC(c2cc(-c3nn(Cc4ccc(-c5nnc(C(F)F)o5)cn4)c(=S)o3)ccc2F)CC1` [Compound 116, 3-[[5-[5-(difluoromethyl)-1,3,4-oxadiazol-2-yl]-2-pyridyl]methyl]-5-[4-fluoro-3-(1-isopropyl-4-piperidyl)phenyl]-1,3,4-oxadiazol-2-thione], the IC50 on human recombinant HDAC1 was > 50000 nM; on human recombinant HDAC6, 116 nM. Also, at human recombinant HDAC6, the “HDAC6 selectivity (fold)” value is 429 fold.

Turning to `CN(C)Cc1cccc(-c2nn(Cc3ncc(-c4nnc(C(F)F)o4)cc3F)c(=S)o2)c1` [Compound 117, 3-[[5-[5-(difluoromethyl)-1,3,4-oxadiazol-2-yl]-3-fluoro-2-pyridyl]methyl]-5-[3-[(dimethylamino)methyl]phenyl]-1,3,4-oxadiazol-2-thione], at human recombinant HDAC1, the IC50 is > 50000 nM. At human recombinant HDAC6, the “HDAC6 selectivity (fold)” value came to 675 fold and the IC50 is 74.1 nM.

Regarding `Fc1cc(-c2nnc(C(F)F)o2)cnc1Cn1nc(-c2cccc(CN3CCC3)c2)oc1=S` [Compound 118, 5-[3-(azetidine-1-ylmethyl)phenyl]-3-[[5-[5-(difluoromethyl)-1,3,4-oxadiazol-2-yl]-3-fluoro-2-pyridyl]methyl]-1,3,4-oxadiazol-2-thione], the concentration for half-maximal inhibition (IC50) at human recombinant HDAC1 is > 50000 nM. Moreover, on human recombinant HDAC6, the “HDAC6 selectivity (fold)” value stood at 742 fold and the IC50 worked out at 67.4 nM.

Broadly, the IC50 is the concentration that gives 50% inhibition.

The record behind these values is US20260327214A1, “1,3,4-OXADIAZOLE DERIVATIVE COMPOUNDS AS HISTONE DEACETYLASE 6 INHIBITOR, AND USES THEREOF” (CHONG KUN DANG PHARMACEUTICAL CORP., priority 2022, published 2026).
